Measurements reported in patent US20260097115A1 (priority 2023, published 2026).

Tests used:
Assay type in all cases: cell-based, human
[1] = system: HLA-II complexes (HLA-DR, HLA-DP, HLA-DQ) of A549/ATC cells
[2] = system: HLA-II complexes (HLA-DR, HLA-DP, HLA-DQ) of HEK293T/ATC cells
[3] = system: HLA-II complexes of A549/ATC and HEK293T/ATC cells

Sequence	Unique A549 peptides in segment [1]	Unique HEK293T peptides in segment [2]	Unique peptides in segment [3]	Detection as HLA-II peptide by LC-MS/MS [2]
AALQIPFAMQMAYRENGIG [S:892-910]	0	11	11	–
ALHFLLFFRALPKS [ORF3a.iORF1: 28-41]	0	1	1	observed in the same fraction (fxn 3) in two biological replicates
ATREASVYAWNRKRISN [S:344-360]	0	3	3	–
CSNLLLQYGSFCTQLNRALTGIAVEQDKNTQE [S:749-780]	0	10	10	–
DGSEDNQTTTIQTIVE [nsp3: 174-189]	0	1	1	–
DSFVIRGDEVRQIAPG [S:398-413]	0	1	1	–
EPQIITTDNTFVSGN [S:1111-1125]	1	0	1	–
IAQFAPSASAFFG [N: 304-316]	1	0	1	–
ICASYQTQTNSPRRA [S:670-684]	0	1	1	–
INITRFQTLLALHRSYL [S: 233-249]	0	1	1	–
KKKADETQALPQRQKKQQTVTLLPAADLDDESKQLQQSMSSADSTQA [N: 373-419]	5	69	69	–
MAGNGGDAALALLLLDRLNQLESKMSGKGQQQQGQTVT [N: 210-247]	21	0	21	–
MDGSIIQFPNTYLEGSVR [nsp4: 194-211]	0	5	5	–
MDLFMRIFTIGTVTLKQGEIKDATPSDF [ORF3a: 1-28]	1	4	4	–
MDPKISEMHPALRLVDPQIQLAVTRMENA [ORF9b: 1-29]	0	8	8	–
NVPLHGTILTRPLLESELVIGAVILRGHLRIAGHHLGRCDIKDLPKEITVA [M: 121-171]	16	18	34	–
RIGMEVTPSGTWLTYTGAIKLDDKDPNEKDQVILLNKHIDAYKTEPP [N: 319-365]	36	17	44	–
SDNGPQNQRNAPRITE [N: 2-17]	1	0	1	–
SPDAVTAYNGYLTSSSK [nsp3: 661-677]	0	1	1	–
SVASQSIIAYTMSLGAEN [S:686-703]	0	3	3	–
TDHSSSSDNIALLVQ [M: 208-222]	2	2	2	–
TEIYQAGSTPCNGVEG [S:470-485]	0	2	2	–
TGPEAGLPYGANKDG [N: 115-129]	1	0	1	–
TPTWRVYSTGSNVFQTRAG [S:630-648]	1	2	3	–
TQLPPAYTNSFTRGVYYPDKVERSSVLHSTQDLFLPFFS [S: 22-60]	13	0	13	–
TQQLIRAAEIRASANLA [S:1009-1025]	0	14	14	–
TVEKGIYQTSNERVQPTES [S:307-325]	3	3	4	–
VGPKVYPIILRLGSPLS [ORF9b: 37-53]	0	2	2	–
YIINLIIKNLSKS [ORF6: 31-43]	1	0	1	–
